Measured values as given in ChEMBL document CHEMBL3352647, “Synthesis and characterization of novel 1,2-oxazine-based small molecules that targets acetylcholinesterase” (Bioorg Med Chem Lett, 2014).
pIC50: −log10 of the molar value.

Columns and labels:
[1] = Inhibition of soybean 5-LOX by spectrophotometry; set-up: species or system Glycine max
Acetylcholinesterase = Acetylcholinesterase (Homo sapiens, UniProt P22303); test: Inhibition of AChE (unknown origin) using ACh chloride as substrate preincubated for 15 mins before substrate addition by Ellman method
Chain of Acetylcholinesterase (P22303 whole entry): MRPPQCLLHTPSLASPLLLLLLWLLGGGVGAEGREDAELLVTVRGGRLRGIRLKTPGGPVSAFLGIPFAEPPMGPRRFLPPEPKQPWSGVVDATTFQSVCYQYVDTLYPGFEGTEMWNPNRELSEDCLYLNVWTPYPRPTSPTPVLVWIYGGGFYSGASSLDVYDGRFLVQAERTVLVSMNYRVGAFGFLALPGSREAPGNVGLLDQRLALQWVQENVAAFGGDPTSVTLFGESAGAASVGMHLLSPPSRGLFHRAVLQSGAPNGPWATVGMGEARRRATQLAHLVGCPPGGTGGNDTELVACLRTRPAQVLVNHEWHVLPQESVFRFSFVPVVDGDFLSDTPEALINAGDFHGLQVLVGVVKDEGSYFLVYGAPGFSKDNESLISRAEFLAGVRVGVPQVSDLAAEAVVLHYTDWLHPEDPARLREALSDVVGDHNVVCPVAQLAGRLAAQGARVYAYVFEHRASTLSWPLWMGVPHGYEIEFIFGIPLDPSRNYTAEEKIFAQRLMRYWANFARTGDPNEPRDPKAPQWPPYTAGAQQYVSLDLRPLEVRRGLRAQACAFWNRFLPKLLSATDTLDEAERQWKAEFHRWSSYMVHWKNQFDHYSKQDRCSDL

Row | Compound | pIC50 [1] | pIC50 (Acetylcholinesterase)
1 | COC(=O)C(CC1=NOC(C)(C)C[C@H]1c1ccc(OC)cc1)C(=O)OC | 4.17 | 
2 | CC1(C)C[C@@H](c2ccccc2)C(CN2C(=O)c3ccccc3C2=O)=NO1 | 4.52 | 4.18
3 | COC(=O)C(CC1=NO[C@@H]2CCCC[C@@H]2[C@H]1c1ccc(OC)cc1)C(=O)OC | 4.47 | 
4 | COC(=O)C(CC1=NO[C@@H]2[C@@H]3CC[C@@H](C3)[C@@H]2[C@H]1c1ccccc1)C(=O)OC | 4.68 | 
5 | CC(=O)N1OC(C)(C)CC(c2ccccc2)=C1CN1C(=O)c2ccccc2C1=O | 5.73 | 5.60
6 | COC(=O)C(CC1=C(c2ccc(OC)cc2)CC(C)(C)ON1C(C)=O)C(=O)OC | 5.91 | 4.84
7 | COC(=O)C(CC1=C(c2ccccc2)CC(C)(C)ON1C(C)=O)C(=O)OC | 5.20 | 4.92
8 | COC(=O)C(CC1=C(c2ccc(Cl)cc2)CC(C)(C)ON1C(C)=O)C(=O)OC |  | 4.33
9 | COC(=O)CC1=NO[C@@H]2CCCC[C@@H]2[C@H]1c1ccccc1 | 4.79 | 4.45
10 | COC(=O)CC1=NO[C@@H]2[C@H]3CC[C@H](C3)[C@@H]2[C@H]1c1ccccc1 | 4.78 | 5.20
11 | COC(=O)C(CC1=NO[C@@H]2CCCC2[C@H]1c1ccccc1)C(=O)OC (single isomer, unassigned) | 4.09 | 4.12
